Patent US10738028B2, “Spiro three-membered ring, spiro five-membered ring peptide deformylase inhibitor and use thereof in antibacteria and anti-tumor” (priority 2016, dated 2020)
Values after ≈ are worked out from the molar mass of the structure shown. Read-outs that look alike come from different tables or passages of the source.

What was measured:
Assay type in all cases: cell-based
[1] = tested on: BEL-7402 liver cancer cell line; test: CCK-8 proliferation inhibition; settings: concentration of 30 μM
Procedure, shortened: (§1)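 Plating at 2000 cells/well, then incubation overnight at 37° C. Next, a range of compound concentrations for 72 hours (control 1‰ DMSO). Finally, medium decanted and CCK-8 diluted 1:10 added.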

[2] = tested on: A549 lung cancer cell line; test: CCK-8 proliferation inhibition; settings: Homo sapiens, A549, 72 h, concentration of 30 μM
Procedure, shortened: as §1

[3] = tested on: MGC-803 gastric cancer cell line; test: CCK-8 proliferation inhibition; settings: Homo sapiens, MGC-803, 72 h, concentration of 30 μM
Procedure, shortened: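 Cells were seeded at 2000 cells/well and cultured overnight at 37° C, 5% CO2, then exposed for 72 hours to compounds diluted from DMSO stocks. Controls received 1‰ DMSO. CCK-8 (1:10 diluted) replaced the medium. MGC-803 and Jurkat were grown in 1640, PC3 in F12, and MCF-7 in DMEM high glucose, each with 10% newborn bovine serum.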

[4] = tested on: HCT-116 colorectal cancer cell line; test: CCK-8 proliferation inhibition; settings: Homo sapiens, HCT-116, 72 h, concentration of 30 μM, 72 hours, CCK-8
Procedure, shortened: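 HCT-116 cells, seeded at 2000 cells/well in McCoy's 5A with 10% newborn bovine serum, were cultured overnight at 37° C., 5% CO2, then exposed to compound dilutions in medium for 72 hours. Viability was read with 1:10 diluted CCK-8; controls received 1‰ DMSO.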

[5] = tested on: Streptococcus pneoumoniae (SPN); test: MIC, two-fold agar dilution (CLSI), clinical isolates
Procedure, shortened: (§2)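 CLSI two-fold agar dilution; MIC of test samples read per tested strain.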

[6] = tested on: methicillin-resistant Staphylococcus aureus (MRSA); test: as above
Procedure, shortened: as §2

[7] = tested on: Escherichia coli (including ESBLs, non-ESBLs); test: as above
Procedure, shortened: as §2

[8] = tested on: Moraxella catarrhalis (BCA); test: as above; settings: for MIC: Moraxella catarrhalis
Procedure, shortened: as §2

[9] = tested on: Enterococcus faecalis (EFA); test: as above
Procedure, shortened: as §2

[10] = tested on: methicillin-resistant Staphylococcus epidermidis (MRSE); test: as above
Procedure, shortened: as §2

[11] = tested on: methicillin-sensitive Staphylococcus aureus (MSSA); test: as above
Procedure, shortened: as §2

[12] = tested on: Enterococcus faecium (EFM); test: as above
Procedure, shortened: as §2

[13] = tested on: methicillin-sensitive Staphylococcus epidermidis (MSSE); test: as above
Procedure, shortened: as §2

[14] = MIC in vitro anti-bacterial experiments, Gram-positive bacteria; settings: lowest MIC reached; read-out: minimum inhibitory concentration against Gram-positive bacteria
Text: 1. The invention adopts the two-fold agar dilution method recommended by the operating procedure of antimicrobial susceptibility testing set by American Clinical and Laboratory Standards Institute (CLSI) to determine the Minimum Inhibitory Concentration (MIC) of the test samples against the tested strains.

In the case of `Cc1csc(NC(=O)[C@@H]2CC3(CC3)CN2C(=O)[C@H](CC2CCCC2)CN(O)C=O)n1` [Example 33], the inhibition at 30 µM ([1]; Homo sapiens, Bel-7402, 72 h) is reported as over 50%, the “Inhibition of proliferation, Liver cancer BEL-7402” value ([1]; 72 hours, 30 µM) is reported as 57% and the inhibition at 30 µM [2] is reported as 20%. It also gave an inhibition at 30 µM [3] of 27%, an inhibition at 30 µM ([4]; Table 5, read-out: Inhibition of proliferation, Colorectal cancer HCT116) of at least 30% and an inhibition at 30 µM ([4]; read-out: HCT116 inhibition rate/%) of 31%. For the same compound, the MIC (anti-bacterial activity) ([5]; strain SPN 16-2) was 0.06 mg/L (≈ 0.138 µM), the MIC (anti-bacterial activity) ([5]; strain SPN 16-4) was 1 mg/L (≈ 2.3 µM) and the MIC (anti-bacterial activity) ([6]; strain MRSA 15-1) was 0.03 mg/L (≈ 0.069 µM). It also gave an MIC (anti-bacterial activity) ([6]; strain MRSA 15-2) of 0.06 mg/L (≈ 0.138 µM), an MIC (anti-bacterial activity) ([6]; strain MRSA 15-3) of under 0.008 mg/L and an MIC (anti-bacterial activity) ([6]; strain MRSA 15-4) of 0.06 mg/L (≈ 0.138 µM). The MIC (anti-bacterial activity) ([7]; strain ECO+ 15-1) was over 32 mg/L, the MIC (anti-bacterial activity) ([7]; strain ECO+ 15-2) was over 32 mg/L and the MIC (anti-bacterial activity) ([7]; strain ECO+ 15-3) was over 32 mg/L. It also gave an MIC (anti-bacterial activity) ([7]; strain ECO+ 15-4) of over 32 mg/L, an MIC (anti-bacterial activity) ([7]; strain ECO− 15-1) of over 32 mg/L and an MIC (anti-bacterial activity) ([7]; strain ECO− 15-2) of over 32 mg/L. It also gave an MIC (anti-bacterial activity) ([7]; strain ECO− 15-3) of over 32 mg/L, an MIC (anti-bacterial activity) ([7]; strain ECO− 15-4) of over 32 mg/L and an MIC ([8]; 7 clinical isolates, range over strains, read-out: Moraxella catarrhalis (n = 7) MIC) of 0.06 to 0.25 mg/L (≈ 0.138 to 0.575 µM). It also gave an MIC ([8]; lowest MIC reached, read-out: minimum inhibitory concentration against Moraxella catarrhalis, as low as) of at least 0.06 mg/L, an Anti-bacterial activity (MIC), strain BCA 14-10 ([8]; clinical isolate BCA 14-10) of 0.06 mg/L and an MIC (anti-bacterial activity) ([8]; strain BCA 14-1) of 0.25 mg/L (≈ 0.575 µM). For the same compound, the MIC (anti-bacterial activity) ([8]; strain BCA 14-4) was 0.25 mg/L (≈ 0.575 µM), the MIC (anti-bacterial activity) ([8]; strain BCA 14-5) was 0.06 mg/L (≈ 0.138 µM) and the MIC (anti-bacterial activity) ([8]; strain BCA 14-6) was 0.06 mg/L (≈ 0.138 µM). The MIC (anti-bacterial activity) ([8]; strain BCA 14-7) was 0.03 mg/L (≈ 0.069 µM), the MIC (anti-bacterial activity) ([8]; strain BCA 14-8) was 0.125 mg/L (≈ 0.288 µM) and the MIC (anti-bacterial activity) ([9]; strain EFA 15-1) was 1 mg/L (≈ 2.3 µM). The MIC (anti-bacterial activity) ([9]; strain EFA 15-2) was 1 mg/L (≈ 2.3 µM), the MIC (anti-bacterial activity) ([9]; strain EFA 15-3) was 1 mg/L (≈ 2.3 µM) and the MIC (anti-bacterial activity) ([9]; strain EFA 15-4) was 1 mg/L (≈ 2.3 µM). It also gave an MIC (anti-bacterial activity) ([9]; strain EFA 15-5) of 1 mg/L (≈ 2.3 µM), an MIC (anti-bacterial activity) ([9]; strain EFA 15-6) of 1 mg/L (≈ 2.3 µM) and an MIC (anti-bacterial activity) ([9]; strain EFA 15-9) of 1 mg/L (≈ 2.3 µM). It also gave an MIC (anti-bacterial activity) ([10]; strain MRSE 15-1) of 0.015 mg/L (≈ 0.0345 µM), an MIC (anti-bacterial activity) ([10]; strain MRSE 15-2) of 0.125 mg/L (≈ 0.288 µM) and an MIC (anti-bacterial activity) ([10]; strain MRSE 15-3) of 0.125 mg/L (≈ 0.288 µM). The MIC (anti-bacterial activity) ([10]; strain MRSE 15-7) was 0.125 mg/L (≈ 0.288 µM), the MIC (anti-bacterial activity) ([11]; strain MSSA 15-3) was 0.06 mg/L (≈ 0.138 µM) and the MIC (anti-bacterial activity) ([11]; strain MSSA 15-4) was 0.03 mg/L (≈ 0.069 µM). The MIC (anti-bacterial activity) ([11]; strain MSSA 15-5) was 0.03 mg/L (≈ 0.069 µM), the MIC (anti-bacterial activity) ([11]; strain MSSA 15-6) was 0.06 mg/L (≈ 0.138 µM) and the MIC (anti-bacterial activity) ([12]; strain EFM 15-1) was 0.5 mg/L (≈ 1.15 µM). For the same compound, the MIC (anti-bacterial activity) ([12]; strain EFM 15-2) was 0.5 mg/L (≈ 1.15 µM), the MIC (anti-bacterial activity) ([12]; strain EFM 15-3) was 0.125 mg/L (≈ 0.288 µM) and the MIC (anti-bacterial activity) ([12]; strain EFM 15-4) was 0.5 mg/L (≈ 1.15 µM). It also gave an MIC (anti-bacterial activity) ([12]; strain EFM 15-5) of 0.5 mg/L (≈ 1.15 µM), an MIC (anti-bacterial activity) ([12]; strain EFM 15-6) of 0.5 mg/L (≈ 1.15 µM) and an MIC (anti-bacterial activity) ([13]; strain MSSE 15-3) of 0.125 mg/L (≈ 0.288 µM). It also gave an MIC (anti-bacterial activity) ([13]; strain MSSE 15-4) of 0.125 mg/L (≈ 0.288 µM), an MIC (anti-bacterial activity) ([13]; strain MSSE 15-5) of 0.125 mg/L (≈ 0.288 µM) and an MIC (anti-bacterial activity) ([13]; strain MSSE 15-6) of 0.03 mg/L (≈ 0.069 µM). It also gave an MIC [14] of under 0.008 mg/L.
